Laboratory results taken from ChEMBL document CHEMBL1201862, “PubChem BioAssay data set” (2004).
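1) Cells in 96-well plates. 2) Compound, 48 h, 5 concentrations. 3) Linear interpolation between surrounding doses. 4) Unreached endpoint = highest concentration. At the GI50, growth is halved.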 Activity calls are given as the source filed them. Cut-off read from the data, not from the text of the source: active = GI50 up to about 1.1 µM and inactive = higher.

Tests used:
Experiment in all cases: inhibition of tumour cell growth, NCI panel, 48 h
[1] = system: NCI-H522
[2] = system: T47D
[3] = system: SF-268
[4] = system: UACC-257
[5] = system: UACC-62
[6] = system: LOX IMVI
[7] = system: HCT-116
[8] = system: M14
[9] = system: SK-OV-3
[10] = system: BT-549
[11] = system: 786-0
[12] = system: NCI-H226
[13] = system: TK-10
[14] = system: HCT-15
[15] = system: Malme-3M
[16] = system: MDA-MB-435
[17] = system: MCF7
[18] = system: OVCAR-5
[19] = system: DU-145
[20] = system: RPMI-8226
[21] = system: OVCAR-8
[22] = system: HL-60
[23] = system: PC-3
[24] = system: OVCAR-3
[25] = system: A549
[26] = system: SK-MEL-28
[27] = system: MDA-MB-231
[28] = system: SR
[29] = system: CAKI-1
[30] = system: MDA-N
[31] = system: SK-MEL-2
[32] = system: EKVX
[33] = system: K562
[34] = system: HOP-92
[35] = system: SN12C
[36] = system: HT-29
[37] = system: IGROV-1
[38] = system: UO-31
[39] = system: COLO 205
[40] = system: SK-MEL-5
[41] = system: SW-620
[42] = system: SF-539
[43] = system: NCI/ADR-RES
[44] = system: U-251
[45] = system: MOLT-4
[46] = system: ACHN
[47] = system: OVCAR-4
[48] = system: KM12
[49] = system: HOP-62
[50] = system: Hs-578T
[51] = system: A498
[52] = system: NCI-H460
[53] = system: SF-295
[54] = system: RXF 393
[55] = system: SNB-75
[56] = system: SNB-19
[57] = system: HCC 2998
[58] = system: CCRF-CEM
[59] = system: NCI-H23

SMILES: Cc1cc(Cc2c(C)c(C)c(Cc3cc(C)cc(C(C)(C)C)c3O)c(C)c2C)c(O)c(C(C)(C)C)c1
- GI50 [1]: > 100 µM (inactive)
- GI50 [2]: > 100 µM (inactive)
- GI50 [3]: > 100 µM (inactive)
- GI50 [4]: > 100 µM (inactive)
- GI50 [5]: > 100 µM (inactive)
- GI50 [6]: > 100 µM (inactive)
- GI50 [7]: > 100 µM (inactive)
- GI50 [8]: > 100 µM (inactive)
- GI50 [9]: > 100 µM (inactive)
- GI50 [10]: > 100 µM (inactive)
- GI50 [11]: > 100 µM (inactive)
- GI50 [12]: > 100 µM (inactive)
- GI50 [13]: > 100 µM (inactive)
- GI50 [14]: > 100 µM
- GI50 [15]: > 100 µM (inactive)
- GI50 [16]: > 100 µM (inactive)
- GI50 [17]: > 100 µM (inactive)
- GI50 [18]: > 100 µM (inactive)
- GI50 [19]: > 100 µM (inactive)
- GI50 [20]: > 100 µM (inactive)
- GI50 [21]: > 100 µM (inactive)
- GI50 [22]: 14.4 µM (inactive)
- GI50 [23]: > 100 µM (inactive)
- GI50 [24]: > 100 µM (inactive)
- GI50 [25]: > 100 µM (inactive)
- GI50 [26]: > 100 µM (inactive)
- GI50 [27]: > 100 µM (inactive)
- GI50 [28]: 1.21 µM (inactive)
- GI50 [29]: > 100 µM (inactive)
- GI50 [30]: > 100 µM (inactive)
- GI50 [31]: > 100 µM (inactive)
- GI50 [32]: > 100 µM (inactive)
- GI50 [33]: > 100 µM (inactive)
- GI50 [34]: > 100 µM (inactive)
- GI50 [35]: > 100 µM (inactive)
- GI50 [36]: > 100 µM (inactive)
- GI50 [37]: > 100 µM (inactive)
- GI50 [38]: > 100 µM (inactive)
- GI50 [39]: > 100 µM (inactive)
- GI50 [40]: > 100 µM (inactive)
- GI50 [41]: > 100 µM (inactive)
- GI50 [42]: > 100 µM (inactive)
- GI50 [43]: > 100 µM (inactive)
- GI50 [44]: > 100 µM (inactive)
- GI50 [45]: 1.56 µM (inactive)
- GI50 [46]: > 100 µM (inactive)
- GI50 [47]: > 100 µM (inactive)
- GI50 [48]: > 100 µM (inactive)
- GI50 [49]: > 100 µM (inactive)
- GI50 [50]: > 100 µM (inactive)
- GI50 [51]: > 100 µM (inactive)
- GI50 [52]: > 100 µM (inactive)
- GI50 [53]: > 100 µM (inactive)
- GI50 [54]: > 100 µM (inactive)
- GI50 [55]: > 100 µM (inactive)
- GI50 [56]: > 100 µM (inactive)

SMILES: COC(=O)CCc1cc(OC)c(O)c(C(Cc2ccc(OC)c(OC)c2)C(=O)OC)c1 (configuration not stated)
- GI50 [1]: > 100 µM (inactive)
- GI50 [2]: > 100 µM (inactive)
- GI50 [3]: > 100 µM (inactive)
- GI50 [4]: > 100 µM (inactive)
- GI50 [5]: > 100 µM (inactive)
- GI50 [6]: > 100 µM (inactive)
- GI50 [7]: > 100 µM (inactive)
- GI50 [8]: > 100 µM (inactive)
- GI50 [9]: > 100 µM (inactive)
- GI50 [10]: > 100 µM (inactive)
- GI50 [11]: > 100 µM (inactive)
- GI50 [12]: > 100 µM (inactive)
- GI50 [57]: > 100 µM (inactive)
- GI50 [13]: > 100 µM (inactive)
- GI50 [14]: > 100 µM
- GI50 [15]: > 100 µM (inactive)
- GI50 [16]: > 100 µM (inactive)
- GI50 [17]: > 100 µM (inactive)
- GI50 [18]: > 100 µM (inactive)
- GI50 [19]: > 100 µM (inactive)
- GI50 [58]: > 100 µM (inactive)
- GI50 [20]: > 100 µM (inactive)
- GI50 [21]: > 100 µM (inactive)
- GI50 [22]: > 100 µM (inactive)
- GI50 [23]: > 100 µM (inactive)
- GI50 [24]: > 100 µM (inactive)
- GI50 [25]: > 100 µM (inactive)
- GI50 [59]: > 100 µM (inactive)
- GI50 [26]: > 100 µM (inactive)
- GI50 [27]: > 100 µM (inactive)
- GI50 [28]: > 100 µM (inactive)
- GI50 [30]: > 100 µM (inactive)
- GI50 [31]: > 100 µM (inactive)
- GI50 [32]: > 100 µM (inactive)
- GI50 [33]: > 100 µM (inactive)
- GI50 [34]: > 100 µM (inactive)
- GI50 [35]: > 100 µM (inactive)
- GI50 [36]: > 100 µM (inactive)
- GI50 [37]: > 100 µM (inactive)
- GI50 [38]: > 100 µM (inactive)
- GI50 [39]: > 100 µM (inactive)
- GI50 [40]: > 100 µM (inactive)
- GI50 [41]: > 100 µM (inactive)
- GI50 [42]: > 100 µM (inactive)
- GI50 [43]: > 100 µM (inactive)
- GI50 [44]: > 100 µM (inactive)
- GI50 [45]: > 100 µM (inactive)
- GI50 [46]: > 100 µM (inactive)
- GI50 [47]: > 100 µM (inactive)
- GI50 [48]: > 100 µM (inactive)
- GI50 [49]: > 100 µM (inactive)
- GI50 [50]: > 100 µM (inactive)
- GI50 [51]: > 100 µM (inactive)
- GI50 [52]: > 100 µM (inactive)
- GI50 [53]: > 100 µM (inactive)
- GI50 [54]: > 100 µM (inactive)
- GI50 [55]: > 100 µM (inactive)
- GI50 [56]: > 100 µM (inactive)

SMILES: O=C1C=CC(O)(C#CCO)C=C1
- GI50 [1]: 1.95 µM (inactive)
- GI50 [2]: 15.2 µM (inactive)
- GI50 [3]: 17.6 µM (inactive)
- GI50 [4]: 14.6 µM (inactive)
- GI50 [5]: 15.6 µM (inactive)
- GI50 [6]: 10.5 µM (inactive)
- GI50 [7]: 15.8 µM (inactive)
- GI50 [8]: 19.5 µM (inactive)
- GI50 [9]: 58.1 µM (inactive)
- GI50 [10]: 12 µM (inactive)
- GI50 [11]: 9.91 µM (inactive)
- GI50 [12]: 13.4 µM (inactive)
- GI50 [57]: 17.5 µM (inactive)
- GI50 [13]: 13.1 µM (inactive)
- GI50 [14]: 2.69 µM
- GI50 [16]: 12.4 µM (inactive)
- GI50 [17]: 4.33 µM (inactive)
- GI50 [18]: 12.1 µM (inactive)
- GI50 [19]: 16 µM (inactive)
- GI50 [58]: 11.6 µM (inactive)
- GI50 [20]: 3.74 µM (inactive)
- GI50 [21]: 13.3 µM (inactive)
- GI50 [22]: 3.17 µM (inactive)
- GI50 [23]: 16.9 µM (inactive)
- GI50 [24]: 17 µM (inactive)
- GI50 [25]: 23.8 µM (inactive)
- GI50 [59]: 16.9 µM (inactive)
- GI50 [26]: 12.9 µM (inactive)
- GI50 [27]: 18.7 µM (inactive)
- GI50 [28]: 2.98 µM (inactive)
- GI50 [29]: 4.02 µM (inactive)
- GI50 [30]: 8.57 µM (inactive)
- GI50 [31]: 17.4 µM (inactive)
- GI50 [32]: 18.4 µM (inactive)
- GI50 [33]: 2.92 µM (inactive)
- GI50 [34]: 2.59 µM (inactive)
- GI50 [35]: 15.9 µM (inactive)
- GI50 [36]: 14.3 µM (inactive)
- GI50 [37]: 13 µM (inactive)
- GI50 [38]: 13.5 µM (inactive)
- GI50 [39]: 6.85 µM (inactive)
- GI50 [40]: 24.3 µM (inactive)
- GI50 [41]: 4.62 µM (inactive)
- GI50 [42]: 17 µM (inactive)
- GI50 [43]: 6.73 µM (inactive)
- GI50 [44]: 11.6 µM (inactive)
- GI50 [45]: 10.3 µM (inactive)
- GI50 [46]: 13.2 µM (inactive)
- GI50 [47]: 11.9 µM (inactive)
- GI50 [48]: 17.5 µM (inactive)
- GI50 [49]: 30.5 µM (inactive)
- GI50 [50]: 29.2 µM (inactive)
- GI50 [51]: 22.4 µM (inactive)
- GI50 [52]: 21.2 µM (inactive)
- GI50 [53]: 39.3 µM (inactive)
- GI50 [54]: 4.02 µM (inactive)
- GI50 [55]: 21.3 µM (inactive)
- GI50 [56]: 22 µM (inactive)
